pIC50: −log10 of the molar value.
What was measured:
Cytochrome P450 2D6 = Cytochrome P450 2D6 (Homo sapiens, UniProt P10635)
[1] = Oral bioavailability in Sprague-Dawley rat at 10 mg/kg administered as single dose measured upto 24 hrs by LC-MS/MS analysis; format: ADME, organism-based; conditions: in vivo
[2] = AUC (0 to infinity) in Beagle dog at 5 mg/kg, po administered as single dose measured upto 24 hrs by LC-MS/MS analysis; format: ADME, organism-based, Canis lupus familiaris; parameters: time < 24 hrs, dose 5 mg/kg, route po; conditions: in vivo
Cytochrome P450 2C19 = Cytochrome P450 2C19 (Homo sapiens, UniProt P33261); assay: Time dependent inhibition of CYP2C19 in human liver microsomes at 10 uM preincubated for 30 mins followed by substrate addition and measured after 15 mins in presence of NADPH by LC-MS/MS analysis; format: ADME, Microsome
[3] = Clearance in Beagle dog at 1 mg/kg, iv administered as single dose measured upto 24 hrs by LC-MS/MS analysis; format: ADME, organism-based, Canis lupus familiaris; conditions: in vivo
in vivo [4] = conditions: Sprague-Dawley, rat, plasma, po, 10 mg/kg
[5] = Volume of distribution at steady state in Beagle dog at 1 mg/kg, iv administered as single dose measured upto 24 hrs by LC-MS/MS analysis; format: ADME, organism-based, Canis lupus familiaris; conditions: in vivo, read-out: Vdss
[6] = AUC (0 to t) in Beagle dog at 1 mg/kg, iv administered as single dose measured upto 24 hrs by LC-MS/MS analysis; format: ADME, organism-based, Canis lupus familiaris; parameters: dose 1 mg/kg, time < 24 hrs, route iv; conditions: in vivo
[7] = Tmax in Sprague-Dawley rat at 10 mg/kg, po administered as single dose measured upto 24 hrs by LC-MS/MS analysis; format: ADME, organism-based; conditions: in vivo
[8] = AUC (0 to infinity) in Sprague-Dawley rat at 10 mg/kg, iv administered as single dose measured upto 24 hrs by LC-MS/MS analysis; format: ADME, organism-based; parameters: dose 10 mg/kg, time < 24 hrs, route iv; conditions: in vivo
in vitro [9] = conditions: human, liver microsomes
HepG2 = assay: cells; conditions: Homo sapiens, HepG2, 48 h
in vivo [10] = conditions: Sprague-Dawley, rat, lung, po, 10 mg/kg
[11] = AUC (0 to t) in Sprague-Dawley rat at 10 mg/kg, po administered as single dose measured upto 24 hrs by LC-MS/MS analysis; format: ADME, organism-based; parameters: time < 24 hrs, dose 10 mg/kg, route po; conditions: in vivo
in vitro [12] = conditions: human, primary hepatocytes
[13] = Drug metabolism in dog hepatocytes assessed as glycine conjugation metabolite at 10 uM measured upto 240 mins by LC-MS/MS analysis; format: ADME, cell-based, Canis lupus familiaris, Hepatocyte; conditions: 4 h
[14] = Cmax in Sprague-Dawley rat at 10 mg/kg, po administered as single dose measured upto 24 hrs by LC-MS/MS analysis; format: ADME, organism-based; parameters: time < 24 hrs, dose 10 mg/kg, route po; conditions: in vivo
in vitro [15] = conditions: human, plasma
in vitro [16] = conditions: dog, hepatocytes
Cytochrome P450 3A4 = Cytochrome P450 3A4 (Homo sapiens, UniProt P08684); assay: Time dependent inhibition of CYP3A4 in human liver microsomes at 10 uM preincubated for 30 mins followed by substrate addition and measured after 15 mins in presence of NADPH by LC-MS/MS analysis; format: ADME, Microsome
Ketohexokinase [17] = biological target: T1, Ketohexokinase (Homo sapiens, UniProt P50053)
T1 sequence (P50053 whole entry): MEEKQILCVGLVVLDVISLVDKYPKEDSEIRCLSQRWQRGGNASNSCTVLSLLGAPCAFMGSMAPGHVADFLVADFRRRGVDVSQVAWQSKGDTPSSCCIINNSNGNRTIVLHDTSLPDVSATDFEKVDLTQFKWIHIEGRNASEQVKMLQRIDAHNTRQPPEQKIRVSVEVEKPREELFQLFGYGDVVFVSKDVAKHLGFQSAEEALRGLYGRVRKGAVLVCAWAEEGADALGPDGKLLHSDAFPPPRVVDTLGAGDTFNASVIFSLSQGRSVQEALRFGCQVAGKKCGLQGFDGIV

[18] = Metabolic stability in dog hepatocyte assessed as parent compound remaining at 10 uM measured after 4 hrs by LC-MS/MS analysis; format: ADME, cell-based, Canis lupus familiaris; conditions: hepatocytes, read-out: Stability
[19] = Drug metabolism in human hepatocytes assessed as oxidation/hydrogenation/decarboxylation metabolite at 10 uM measured upto 240 mins by LC-MS/MS analysis; format: ADME, cell-based, Hepatocyte; conditions: 4 h
Ketohexokinase [20] = biological target: T1, Ketohexokinase; remark: listed apart in the source
in vivo [21] = conditions: Sprague-Dawley, rat, kidney/plasma, po, 10 mg/kg
in vitro [22] = conditions: mouse, hepatocytes
[23] = Volume of distribution at steady state in Sprague-Dawley rat at 10 mg/kg, iv administered as single dose measured upto 24 hrs by LC-MS/MS analysis; format: ADME, organism-based; conditions: in vivo, read-out: Vdss
[24] = Elimination half life in Sprague-Dawley rat at 10 mg/kg, iv administered as single dose measured upto 24 hrs by LC-MS/MS analysis; format: ADME, organism-based; conditions: in vivo, read-out: beta t1/2 (converted)
in vitro [25] = conditions: rhesus monkey, hepatocytes
[26] = Tmax in Beagle dog at 5 mg/kg, po administered as single dose measured upto 24 hrs by LC-MS/MS analysis; format: ADME, organism-based, Canis lupus familiaris; conditions: in vivo
in vitro [27] = conditions: rat, plasma
[28] = Elimination half life in Beagle dog at 1 mg/kg, iv administered as single dose measured upto 24 hrs by LC-MS/MS analysis; format: ADME, organism-based, Canis lupus familiaris; conditions: in vivo, read-out: beta t1/2 (converted)
[29] = Elimination half life in Sprague-Dawley rat at 10 mg/kg, po administered as single dose measured upto 24 hrs by LC-MS/MS analysis; format: ADME, organism-based; conditions: in vivo, read-out: beta t1/2 (converted)
[30] = MRT (0 to t) in Sprague-Dawley rat at 10 mg/kg, po administered as single dose measured upto 24 hrs by LC-MS/MS analysis; format: ADME, organism-based; conditions: in vivo
[31] = biological target: Sodium channel protein type 5 subunit alpha (Homo sapiens, UniProt Q14524)
Cytochrome P450 2C9 = Cytochrome P450 2C9 (Homo sapiens, UniProt P11712)
in vitro [32] = conditions: rat, hepatocytes
[33] = MRT (0 to t) in Beagle dog at 5 mg/kg, po administered as single dose measured upto 24 hrs by LC-MS/MS analysis; format: ADME, organism-based, Canis lupus familiaris; conditions: in vivo
in vivo [34] = conditions: Sprague-Dawley, rat, heart, po, 10 mg/kg
[35] = Cmax in Beagle dog at 5 mg/kg, po administered as single dose measured upto 24 hrs by LC-MS/MS analysis; format: ADME, organism-based, Canis lupus familiaris; parameters: time < 24 hrs, dose 5 mg/kg, route po; conditions: in vivo

Sequence of Cytochrome P450 2C9 (P11712 whole entry): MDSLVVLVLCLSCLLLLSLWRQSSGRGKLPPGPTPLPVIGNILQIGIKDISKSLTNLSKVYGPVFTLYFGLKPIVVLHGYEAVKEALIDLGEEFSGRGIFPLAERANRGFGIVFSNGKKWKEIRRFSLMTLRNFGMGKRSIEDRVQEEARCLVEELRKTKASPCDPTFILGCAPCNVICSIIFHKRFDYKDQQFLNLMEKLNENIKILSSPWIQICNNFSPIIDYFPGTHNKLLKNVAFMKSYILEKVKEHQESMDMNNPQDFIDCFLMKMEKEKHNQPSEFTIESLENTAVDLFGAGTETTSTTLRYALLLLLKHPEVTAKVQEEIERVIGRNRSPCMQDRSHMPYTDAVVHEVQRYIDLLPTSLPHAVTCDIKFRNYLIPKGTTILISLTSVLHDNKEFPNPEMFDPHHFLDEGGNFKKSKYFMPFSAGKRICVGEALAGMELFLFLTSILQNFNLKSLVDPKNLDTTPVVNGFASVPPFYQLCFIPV
Sequence of Cytochrome P450 3A4 (P08684 whole entry): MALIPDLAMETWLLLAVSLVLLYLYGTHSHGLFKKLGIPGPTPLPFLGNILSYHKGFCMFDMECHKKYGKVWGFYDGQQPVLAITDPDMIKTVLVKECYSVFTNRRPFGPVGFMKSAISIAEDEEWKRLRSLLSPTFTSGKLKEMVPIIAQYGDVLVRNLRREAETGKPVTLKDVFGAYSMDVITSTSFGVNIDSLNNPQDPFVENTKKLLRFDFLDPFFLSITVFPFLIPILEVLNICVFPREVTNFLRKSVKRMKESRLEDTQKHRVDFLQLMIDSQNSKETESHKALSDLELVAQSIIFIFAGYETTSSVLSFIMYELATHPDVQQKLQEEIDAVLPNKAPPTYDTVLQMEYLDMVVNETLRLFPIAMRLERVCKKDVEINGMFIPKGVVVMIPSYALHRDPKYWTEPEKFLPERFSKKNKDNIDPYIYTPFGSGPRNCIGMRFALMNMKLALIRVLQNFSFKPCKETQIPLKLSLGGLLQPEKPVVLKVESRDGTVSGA
Sequence of Sodium channel protein type 5 subunit alpha (Q14524 whole entry): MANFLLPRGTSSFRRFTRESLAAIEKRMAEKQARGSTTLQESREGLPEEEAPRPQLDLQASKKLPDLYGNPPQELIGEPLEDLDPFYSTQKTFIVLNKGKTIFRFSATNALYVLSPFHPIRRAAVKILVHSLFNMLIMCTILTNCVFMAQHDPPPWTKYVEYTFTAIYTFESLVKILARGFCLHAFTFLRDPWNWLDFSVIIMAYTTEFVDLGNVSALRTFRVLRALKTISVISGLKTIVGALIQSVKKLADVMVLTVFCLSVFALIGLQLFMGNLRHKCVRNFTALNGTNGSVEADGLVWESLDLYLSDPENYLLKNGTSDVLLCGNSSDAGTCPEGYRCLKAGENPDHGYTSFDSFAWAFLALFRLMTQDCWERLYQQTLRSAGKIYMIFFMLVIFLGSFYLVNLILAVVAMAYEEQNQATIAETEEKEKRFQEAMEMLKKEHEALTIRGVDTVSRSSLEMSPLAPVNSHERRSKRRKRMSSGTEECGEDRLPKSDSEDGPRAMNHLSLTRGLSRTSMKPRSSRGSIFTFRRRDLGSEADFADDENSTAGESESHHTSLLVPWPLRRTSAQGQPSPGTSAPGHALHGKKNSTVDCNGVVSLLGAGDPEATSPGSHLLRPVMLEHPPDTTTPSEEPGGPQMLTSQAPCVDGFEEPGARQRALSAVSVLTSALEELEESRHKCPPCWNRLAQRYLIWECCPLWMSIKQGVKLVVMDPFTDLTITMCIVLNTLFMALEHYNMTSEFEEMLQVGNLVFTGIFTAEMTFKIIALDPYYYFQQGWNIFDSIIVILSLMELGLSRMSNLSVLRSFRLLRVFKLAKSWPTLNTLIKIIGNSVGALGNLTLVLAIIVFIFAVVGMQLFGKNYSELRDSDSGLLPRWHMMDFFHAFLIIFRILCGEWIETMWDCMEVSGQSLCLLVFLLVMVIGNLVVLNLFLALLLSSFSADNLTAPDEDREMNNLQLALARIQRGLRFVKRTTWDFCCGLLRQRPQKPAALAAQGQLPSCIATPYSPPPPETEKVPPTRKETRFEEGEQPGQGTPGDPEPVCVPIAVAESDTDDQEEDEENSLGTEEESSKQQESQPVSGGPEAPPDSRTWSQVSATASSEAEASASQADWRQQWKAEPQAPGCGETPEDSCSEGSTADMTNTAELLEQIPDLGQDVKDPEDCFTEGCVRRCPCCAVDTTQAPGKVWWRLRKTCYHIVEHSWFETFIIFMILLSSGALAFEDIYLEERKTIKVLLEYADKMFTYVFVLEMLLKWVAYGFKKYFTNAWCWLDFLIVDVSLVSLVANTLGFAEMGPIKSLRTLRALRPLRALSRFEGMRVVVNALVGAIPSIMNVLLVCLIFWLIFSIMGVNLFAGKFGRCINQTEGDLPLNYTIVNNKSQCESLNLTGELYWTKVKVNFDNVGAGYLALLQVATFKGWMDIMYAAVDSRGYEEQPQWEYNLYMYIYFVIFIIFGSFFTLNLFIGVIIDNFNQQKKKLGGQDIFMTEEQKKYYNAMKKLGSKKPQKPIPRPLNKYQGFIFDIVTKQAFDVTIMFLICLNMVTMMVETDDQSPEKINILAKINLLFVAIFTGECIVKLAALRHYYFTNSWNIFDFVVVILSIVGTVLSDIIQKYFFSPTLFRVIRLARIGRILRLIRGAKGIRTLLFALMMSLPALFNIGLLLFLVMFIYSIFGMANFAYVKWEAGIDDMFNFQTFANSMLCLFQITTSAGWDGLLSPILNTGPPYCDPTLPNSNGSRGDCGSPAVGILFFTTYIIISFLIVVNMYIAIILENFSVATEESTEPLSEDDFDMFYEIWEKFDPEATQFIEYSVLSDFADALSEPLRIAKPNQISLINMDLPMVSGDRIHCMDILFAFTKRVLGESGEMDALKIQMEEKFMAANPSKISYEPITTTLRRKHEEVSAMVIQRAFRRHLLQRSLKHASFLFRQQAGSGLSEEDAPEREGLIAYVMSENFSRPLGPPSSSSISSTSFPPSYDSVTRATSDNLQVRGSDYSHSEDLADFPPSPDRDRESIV
Sequence of Cytochrome P450 2D6 (P10635 whole entry): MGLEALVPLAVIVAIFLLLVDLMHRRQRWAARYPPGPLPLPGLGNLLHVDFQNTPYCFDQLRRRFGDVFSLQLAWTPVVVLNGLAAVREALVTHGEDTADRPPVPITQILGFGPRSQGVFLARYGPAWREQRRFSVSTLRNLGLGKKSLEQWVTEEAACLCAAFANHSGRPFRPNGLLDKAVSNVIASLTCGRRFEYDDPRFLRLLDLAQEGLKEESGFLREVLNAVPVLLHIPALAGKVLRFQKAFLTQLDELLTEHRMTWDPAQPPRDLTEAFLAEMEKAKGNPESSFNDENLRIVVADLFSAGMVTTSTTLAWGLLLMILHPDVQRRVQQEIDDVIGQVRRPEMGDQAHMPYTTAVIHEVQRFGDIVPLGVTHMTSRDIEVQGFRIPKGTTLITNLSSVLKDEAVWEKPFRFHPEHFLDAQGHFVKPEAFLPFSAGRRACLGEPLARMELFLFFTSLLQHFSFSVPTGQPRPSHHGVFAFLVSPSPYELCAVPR
Sequence of Cytochrome P450 2C19 (P33261 whole entry): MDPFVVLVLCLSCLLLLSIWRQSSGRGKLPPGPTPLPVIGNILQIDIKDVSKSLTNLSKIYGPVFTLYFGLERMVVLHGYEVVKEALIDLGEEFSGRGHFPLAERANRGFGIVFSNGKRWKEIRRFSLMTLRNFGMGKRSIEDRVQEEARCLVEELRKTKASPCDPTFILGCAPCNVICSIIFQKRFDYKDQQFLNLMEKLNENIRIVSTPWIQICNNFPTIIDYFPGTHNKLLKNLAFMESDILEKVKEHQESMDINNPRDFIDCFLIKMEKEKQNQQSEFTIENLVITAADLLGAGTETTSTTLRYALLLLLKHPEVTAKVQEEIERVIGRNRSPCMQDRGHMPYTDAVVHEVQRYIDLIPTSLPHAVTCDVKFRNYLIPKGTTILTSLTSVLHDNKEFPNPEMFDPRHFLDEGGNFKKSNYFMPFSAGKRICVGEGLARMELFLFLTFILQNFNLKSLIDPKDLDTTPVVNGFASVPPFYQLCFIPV

C[C@H]1CCN1c1nc(N2CC[C@H](CCC(=O)O)C2)c2c(n1)C(F)(F)CC2
pIC50 (Cytochrome P450 2D6): < 4.52 | bioavailability [1]: 54.6% | AUC [2]: 34100 ng·h/mL | pIC50 (Cytochrome P450 2C19): < 5.00 | clearance [3]: 3.06 mL/min/kg | concentration at 24 h (in vivo [4]): 5080 ng/mL | Vd [5]: 0.87 L/kg | AUCt [6]: 5440 ng·h/mL | Tmax [7]: 2.33 h | AUC [8]: 76200 ng·h/mL | microsomal CLint at 2 h, 1 µM (in vitro [9]): 6.4 µL/min/mg | pIC50 (HepG2): < 3.82 | concentration at 24 h (in vivo [10]): 620 ng/g | AUCt [11]: 39900 ng·h/mL | IC50 at 48 h (in vitro [12]): > 150 µM | Drug metabolism [13]: Metabolite_Notdetected | Cmax [14]: 4900 ng/mL | fraction unbound (in vitro [15]): 0.089 | hepatocyte CLint at 2 h, 1 µM (in vitro [16]): < 0.96 µL/min/1e6 cells | pIC50 (Cytochrome P450 3A4): < 5.00 | pIC50 (Ketohexokinase [17]): 7.24 | remaining at 4 h, 10 µM [18]: 97.8% | Drug metabolism [19]: Metabolite_Notdetected | pIC50 (Ketohexokinase [20]): 7.45 | Kp at 24 h (in vivo [21]): 2.2 | solubility kinetic (physchem): > 1000 µM | hepatocyte CLint at 2 h, 1 µM (in vitro [22]): < 0.96 µL/min/1e6 cells | Vd [23]: 0.89 L/kg | half-life [24]: 349 min | hepatocyte CLint at 2 h, 1 µM (in vitro [25]): < 0.96 µL/min/1e6 cells | Tmax [26]: 45 min | fraction unbound (in vitro [27]): 0.025 | half-life [28]: 306 min | half-life [29]: 430 min | MRT last at 24 h [30]: 8.5 h | pIC50 [31]: < 4.52 | pIC50 (Cytochrome P450 2C9): < 4.52 | hepatocyte CLint at 2 h, 1 µM (in vitro [32]): < 0.96 µL/min/1e6 cells | MRT last at 24 h [33]: 4.15 h | concentration at 24 h (in vivo [34]): 1490 ng/g | Cmax [35]: 10100 ng/mL

— ChEMBL document CHEMBL5365534, “Discovery of a Novel Ketohexokinase Inhibitor with Improved Drug Distribution in Target Tissue for the Treatment of Fructose Metabolic Disease” (J Med Chem, 2023)
